Patent US20020054880A1, “Anti-inflammatory, tolerogenic and immunoinhibiting properties of carbohydrate binding-peptides” (priority 1992, published 2002)
“Also recorded” adds a separate entry of the source.

Columns and labels:
[1] = target: T1, ACS2P1-biotin binding to asialofetuin (Bos taurus, UniProt P12763); experiment: Screening of S2 and S3 peptides for inhibition of ACS2P1-biotin binding to asialofetuin; conditions: peptide μM: ACS2P1 4.1, S2P2 42.5, SPYGRC 5520, S2P3 22.4, S2P4 6.0, S2P6 319, S3P1 1142, S3P2 934, S3P3 16.1, S3P4 6.4, S3P5 22.5; ACS2P1-biotin 0.1 μg; − inhibition, + enhancement
T1 construct: made in house
T1 sequence (P12763 19-359): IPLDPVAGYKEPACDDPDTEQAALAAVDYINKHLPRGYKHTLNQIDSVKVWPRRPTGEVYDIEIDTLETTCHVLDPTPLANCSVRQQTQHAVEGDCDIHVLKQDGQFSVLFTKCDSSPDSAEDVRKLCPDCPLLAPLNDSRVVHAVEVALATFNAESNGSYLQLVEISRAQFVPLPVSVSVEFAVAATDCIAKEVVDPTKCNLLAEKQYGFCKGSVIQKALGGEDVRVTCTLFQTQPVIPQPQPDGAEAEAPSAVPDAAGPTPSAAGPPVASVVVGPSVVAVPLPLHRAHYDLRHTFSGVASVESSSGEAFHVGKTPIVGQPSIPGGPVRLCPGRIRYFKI

[2] = target: T2, PT-biotin binding to fetuin (Bos taurus, UniProt P12763); experiment: PT-biotin binding to fetuin, binding inhibition assay; parameters: species or system Bordetella pertussis; conditions: for Percent Changes in Binding Activity PT/fetuin: peptide mg/mL: S2PL 1.2, ACS2P1 1.0, S2(14-2.3) 1.0, S2P2 1.1, S2P3 0.51, S2P4 0.98, S2P6 0.85, S3P1 3.2, S3P2 3.1, S3P3 4.5, S3P4 3.3, S3P5 0.48, S3P9a 1.7, SPYGRC 4.4, S2(WGA) 1.0, WGA (62-73) 1.0, + enhancement, − inhibition
T2 construct: purchased Sigma Chemical Company (fetuin); Connaught Center for Biotechnology Research (PT)
T2 sequence (P12763 19-359): T1 sequence (P12763 19-359)
Experimental: (§1) Peptides ranging in concentration from 0.5 to 4.5 mg/ml in PBS (40 μl) were added to each well and PT-biotin (10 μl containing 10 ng in PBS) was then added to the microtiter wells. […] Horseradish peroxidase-conjugated avidin (100 μl, 1/3000 dilution in PBST to a concentration of 0.3 μg/ml) was then added to the wells, and the plates were incubated at ambient temperature for 1 hour. […] Color development was recorded at 405 nm using a Titertek Multiskan MC plate reader. […] Binding assays for each peptide were done in duplicate. Binding inhibition experiments utilizing SNA-, WGA-, and MAL-biotin were performed as described above using 10 ng of each biotinylated lectin in PBS.
(§2) Binding assays for each inhibitor concentration were done at least in duplicate, and the average value varied less than 15%.

[3] = target: T3, PT-biotin binding to asialofetuin (Bos taurus, UniProt P12763); experiment: PT-biotin binding to asialofetuin, binding inhibition assay; parameters: species or system Bordetella pertussis; conditions: for Percent Changes in Binding Activity PT/asialo-fetuin: peptide mg/mL: S2PL 1.2, ACS2P1 1.0, S2P2 1.1, S2P3 0.51, S2P4 0.98, S2P6 0.85, S3P1 3.2, S3P2 3.1, S3P3 4.5, S3P4 3.3, S3P5 0.48, SPYGRC 4.4, + enhancement, − inhibition; for IC50 PT-b (asialofetuin): wells coated with 3 μg/ml asialofetuin, 2-fold dilutions of peptide in PBS
T3 construct: made in house
T3 sequence (P12763 19-359): T1 sequence (P12763 19-359)
Experimental: as §1, §2

[4] = target: T4, MAL-biotin binding to fetuin (Bos taurus, UniProt P12763); experiment: MAL-biotin binding to fetuin, binding inhibition assay; parameters: species or system Maackia amurensis; conditions: for Percent Changes in Binding Activity MAL/fetuin: peptide mg/mL: S2PL 1.2, ACS2P1 1.0, S2(14-2.3) 1.0, S2P2 1.1, S2P3 0.51, S2P4 0.98, S2P6 0.85, S3P1 3.2, S3P2 3.1, S3P3 4.5, S3P4 3.3, S3P5 0.48, S3P9a 1.7, SPYGRC 4.4, S2(WGA) 1.0, WGA (62-73) 1.0, + enhancement, − inhibition
T4 construct: purchased Sigma Chemical Company (fetuin); Boehringer Mannheim (MAL-biotin)
T4 sequence (P12763 19-359): T1 sequence (P12763 19-359)
Experimental: as §1, §2

[5] = target: T5, WGA-biotin binding to fetuin (Bos taurus, UniProt P12763); experiment: biochemical; conditions: for Percent Changes in Binding Activity WGA/fetuin: peptide mg/mL: S2PL 1.2, ACS2P1 1.0, S2(14-2.3) 1.0, S2P2 1.1, S2P3 0.51, S2P4 0.98, S2P6 0.85, S3P1 3.2, S3P2 3.1, S3P3 4.5, S3P4 3.3, S3P5 0.48, SPYGRC 4.4, S2(WGA) 1.0, WGA (62-73) 1.0, + enhancement, − inhibition
T5 sequence (P12763 19-359): T1 sequence (P12763 19-359)
Experimental: (§3) The solution was removed by aspiration and replaced with 100 μl of 1% BSA in PBS containing 0.05% Tween 20 (PBST). After incubation for 2-4 hours at room temperature, the microtiter wells were washed four times with 300 μl of PBST. Peptides ranging in concentration from 0.5 to 4.5 mg/ml in PBS (40 μl) were added to each well and PT-biotin (10 μl containing 10 ng in PBS) was then added to the microtiter wells. After incubating for 1 hour, the binding reaction was stopped by aspirating the solutions and the plate was washed with PBST (300 μl). Horseradish peroxidase-conjugated avidin (100 μl, 1/3000 dilution in PBST to a concentration of 0.3 μg/ml) was then added to the wells, and the plates were incubated at ambient temperature for 1 hour. After washing the wells as described above, the substrate solution [1 mM ABTS in 5 mM citrate buffer, pH 4.2, containing 0.1% hydrogen peroxide, v/v) was added and the plates were incubated for 30 minutes. Color development was recorded at 405 nm using a Titertek Multiskan MC plate reader. Maximum binding was determined in the absence of peptide, and background binding was measured in wells coated with BSA only. Binding assays for each peptide were done in duplicate. Binding inhibition experiments utilizing SNA-, WGA-, and MAL-biotin were performed as described above using 10 ng of each biotinylated lectin in PBS.

[6] = target: T6, SNA-biotin binding to fetuin (Bos taurus, UniProt P12763); experiment: biochemical; conditions: peptide mg/mL: S2PL 1.2, ACS2P1 1.0, S2(14-2.3) 1.0, S2P2 1.1, S2P3 0.51, S2P4 0.98, S2P6 0.85, S3P1 3.2, S3P2 3.1, S3P3 4.5, S3P4 3.3, S3P5 0.48, S3P9a 1.7, SPYGRC 4.4, S2(WGA) 1.0, WGA (62-73) 1.0; + enhancement, − inhibition
T6 sequence (P12763 19-359): T1 sequence (P12763 19-359)
Experimental: as §3

[7] = target: T7, ACS2P1-biotin binding to fetuin (Bos taurus, UniProt P12763); experiment: biochemical; conditions: peptide μM: ACS2P1 4.1, S2P2 42.5, SPYGRC 5520, S2P3 22.4, S2P4 6.0, S2P6 319, S3P1 1142, S3P2 934, S3P3 16.1, S3P4 6.4, S3P5 22.5; ACS2P1-biotin 0.1 μg; − inhibition, + enhancement
T7 construct: purchased Sigma Chemical Company
T7 sequence (P12763 19-359): T1 sequence (P12763 19-359)

Row | Compound | Percent Change in Binding Activity Asialofetuin [1] | Percent Changes in Binding Activity PT/fetuin [2] | effect on PT-biotin binding to asialofetuin, in words [3] | Percent Changes in Binding Activity PT/asialo-fetuin [3] | IC50 PT-b (asialofetuin) [3] | Percent Changes in Binding Activity MAL/fetuin [4] | Percent Changes in Binding Activity WGA/fetuin [5] | Percent Changes in Binding Activity SNA/fetuin [6] | Percent Change in Binding Activity Fetuin [7] | IC50 [2] [µM] | effect on PT-biotin binding to fetuin, in words [2] | IC50 [4] [µM] | effect on MAL-biotin binding to fetuin, in words [4] | IC50 [5] [µM] | enhancement of PT-biotin binding to fetuin relative to control experiments in the absence of peptide ([2]; initial peptide screening) [fold]
1 | CASPYEGRYRDMYDALRRLLY [Peptide S3P5] | −17 ± 8% | +14 ± 6% | reduce binding of PT to asialofetuin only; also recorded: inhibit PT-biotin's interaction with asialofetuin in a concentration-dependent manner | −26 ± 10% | above the solubility limits of the peptide in PBS | +3 ± 6% | +35 ± 8% | 0(1) Percent | −19 ± 4% | – | – | – | – | – | –
2 | PQEQITQHGSQYGYC [S2 (WGA)] | – | +79 ± 15% | – | – | – | +22 ± 3% | −4 ± 3% | 0 ± 1% | – | – | – | – | – | – | –
3 | YDGKYWSMYSRLRKMLY [Peptide S2P4] | +2 ± 4% | +14 ± 22% | – | −3(1) Percent | – | +2(1) Percent | +15 ± 1% | +3(1) Percent | −8 ± 16% | – | – | – | – | – | –
4 | CITTIYKTGQPAADHYYSKVTA [Peptide S3P3] | −10 ± 11% | +19 ± 67% | reduce binding of PT to asialofetuin only; also recorded: inhibit PT-biotin's interaction with asialofetuin in a concentration-dependent manner | −28 ± 7% | above the solubility limits of the peptide in PBS | +13 ± 15% | +6 ± 3% | +3 ± 0% | −13 ± 16% | – | – | – | – | – | –
5 | TQHGSPYGRC [S2 (14-23)] | – | +68 ± 9% | – | – | – | +32 ± 1% | +7 ± 1% | +1 ± 2% | – | – | – | – | – | – | –
6 | Ac-PQEQITQHGSPYGRC-NH2 [ACS2P1] | +101 ± 2% | +89 ± 3% | – | +190 ± 23% | – | +16 ± 9% | – | – | – | – | – | – | – | – | –
7 | CC[C@H](C)[C@H](NC(=O)[C@H](CS)NC(=O)[C@H](Cc1ccccc1)NC(=O)[C@@H](NC(=O)[C@@H](NC(=O)[C@H](CCCCN)NC(=O)[C@H](CC(C)C)NC(=O)[C@H](CC(=O)O)NC(=O)[C@H](Cc1ccccc1)NC(=O)[C@H](C)NC(=O)CN)[C@@H](C)O)[C@@H](C)O)C(=O)N[C@@H](CCSC)C(=O)N[C@H](C(=O)N[C@H](C(=O)N[C@@H](CCCNC(=N)N)C(=O)N[C@@H](CC(N)=O)C(=O)N[C@H](C(=O)NCC(=O)N[C@@H](CCC(N)=O)C(=O)N1CCC[C@H]1C(=O)N[C@@H](C)C(=O)O)[C@@H](C)O)[C@@H](C)O)[C@@H](C)O [Peptide S2P3] | +15 ± 11% | −21 ± 0% | – | −15(1) Percent | – | −18 ± 2% | −56 ± 8% | −15 ± 4% | +70 ± 11% | 190 ± 90 | inhibit binding to fetuin of all the biotinylated lectins | 860 ± 20 | inhibit binding to fetuin of all the biotinylated lectins; also recorded: very active at inhibiting | 140 ± 30 | –
8 | PQEQITQHGSPYGRC [Peptide S2P1] | – | +85 ± 4% | – | +113(1) Percent | – | +8 ± 4% | −18 ± 2% | −5 ± 1% | – | – | enhancement of binding of PT to fetuin | – | – | – | ~2
9 | AGFIYRETFCITTIYKTGQPAADHYYSKVTA [Peptide S3P4] | +26 ± 2% | +12 ± 2% | – | +75 ± 50% | – | +7 ± 1% | +13 ± 1% | +1(1) Percent | +55 ± 26% | – | – | – | – | – | –
10 | H-SQYGYCGFGAEY-OH [WGA (62-73)] | – | −32 ± 5% | – | – | – | −1 ± 4% | −9 ± 1% | −3 ± 2% | – | 1500 | – | – | – | 3400 | –
